Assay results taken from patent publication US20230248744A1, “25-HYDROXYVITAMIN D2 AND/OR D3 FOR USE IN OBESITY” (CARBOGEN AMCIS B.V., priority 2020, published 2023).
Where two headings read alike, the source gives them in different places.

Assay: Double-blind randomized crossover pharmacokinetic study, single oral 900 μg vitamin D3 or 25(OH)D3
Type: in vivo, human
Details: for Cmax / Tmax / concentration at 14 days / half-life / AUC: both sexes, human, in vivo, po, single oral 900 μg, mean ± SEM; for Cmax / Tmax / half-life / AUC: 900 ug; for concentration at 14 days: 900 μg, read-out: Ctrough (trough level at day 14); for half-life: read-out: T1/2 (elimination half-life) (converted); for blood level of vitamin D3 relative to Cmax: FIG. 4a, turning point after about 2% days, single oral 900 μg vitamin D3
Method: The conclusions as presented herein are based on the following experiments: In a double-blinded cross-over study single high dosages (900 μg total in two soft gel capsules containing 450 μg) of either vitamin D3 or 25(OH)D3 were administered to vitamin D-deficient volunteers including healthy controls as well as subjects with a history of malabsorption. At the outset, the BMI was determined. Blood samples were then taken at baseline and at 2, 4, 6, 8, and 12 hours as well as 1, 2, 3, 7, and 14 days after administration (FIG. 2). All the samples were analyzed for their contents in vitamin D3 per se as well as 25(OH)D3. […] In addition, peak levels were more rapidly reached with 25(OH)D3 than with vitamin D3 (see FIG. 5). The immediate increase in serum 25(OH)D3 compared to the delayed increase observed with vitamin D3 supports the concept that 25(OH)D3 is being rapidly absorbed from the small intestine into the portal circulation, whereas vitamin D3 first needs to be incorporated into the chylomicrons which are absorbed into the lymphatic system.
The pharmacokinetic parameters of orally administered 25(OH)D3 and vitamin D3 (both provided for formulation in form of visually identical soft-gel pills) were studied based on the corresponding serum concentration-time curves in healthy adults and adults with a history of intestinal malabsorption (see FIG. 2). Cinical safety has been evaluated by monitoring serum calcium, phosphorus, parathyroid hormone (PTH) and 25(OH)D levels at the beginning and end of the study. Furthermore, the distribution of supplemented 25(OH)D3 (or 25(OH)D2) into adipose tissue and the role it is playing there was also studied.
Serum levels of calcium, phosphorus, albumin, creatinine and intact parathyroid hormone (iPTH) were determined at baseline and at the end of each 14-day pharmacokinetic study (see Table 4). The pharmacokinetic parameters have been determined by evaluating the serum concentration-time curves in patients with malabsorption syndrome and healthy controls (Tables 5 and 6).
The primary outcomes of the study are the serum pharmacokinetic parameters of 25(OH)D3 and vitamin D3 after a single oral administration of 900 μg of each in a double-blind randomized crossover study.
Adult patients (18 years and older) with a history of intestinal malabsorption (n=10) and healthy adult volunteers (n=10); (of both sexes and all ethnicities) has been recruited in this randomized double-blinded crossover study. The BMI has been determined and recorded at baseline. All subjects have been prescreened for 25(OH)D levels to include subjects with 25(OH)D<30 ng/mL. The subjects have been randomized to receive two oral doses of 450 μg taken simultaneously (total 900 μg) of either vitamin D3 or 25(OH)D3. Blood samples were taken at baseline and at 2, 4, 6, 8, 12 hours and days 1, 2, 3, 7 and 14. There was a two weeks washout period before the subject received in a double blinded manner, two oral doses of 450 μg taken simultaneously (total 900 μg) of either 25(OH)D3 or vitamin D3 (depending on which one they took in the randomization) any time after the 2 week washout. Blood samples were taken at baseline and at 2, 4, 6, 8, 12 hours and days 1, 2, 3, 7 and 14 days. Serum levels of calcium, phosphorus, albumin, creatinine, and intact parathyroid hormone (iPTH) were obtained at baseline and at day 14 for each arm (or within a reasonable time if the study participant was unable to come on the exact day).
The individuals participating in the study had, after signing a consent form, been randomized by a computer randomization chart in a blinded manner to receive two oral doses of 450 μg taken simultaneously (total 900 μg) of either vitamin D3 or 25(OH)D3. Blood samples have been taken at baseline and at 2, 4, 6, 8, 12 hours and days 1, 2, 3, 7 and 14. […]

[1] = healthy participants with higher BMI (N = 5)
[2] = healthy participants with lower BMI (N = 5)
[3] = patients with fat malabsorption (N = 6)

Question: Which results are given for `C=C1CC[C@H](O)C/C1=C/C=C1\CCC[C@]2(C)[C@@H]([C@H](C)CCCC(C)C)CC[C@@H]12` [vitamin D3, cholecalciferol]?
Answer: time at which the peak of the serum concentration is reached (FIG. 5, oral 900 μg): about 12 hours; bioavailability in subjects with a history of vitamin D/fat malabsorption (after administration of the respective product, FIGS. 3a and b): reduced; Cmax (healthy participants (N = 10)): 53.5 ± 6 ng/mL; Tmax (healthy participants (N = 10)): 10.4 ± 0.7 h; concentration at 14 days (healthy participants (N = 10)): 0.3 ± 0.3 ng/mL; half-life (healthy participants (N = 10)): 31.4 ± 3.3 h; AUC (healthy participants (N = 10), serum level of the administered substance): 3.26 ± 0.496 µg·h/mL; AUC [1]: 2.09 ± 0.547 µg·h/mL; Cmax [1]: 44.4 ± 9.3 ng/mL; Tmax [1]: 9.6 ± 1 h; concentration at 14 days [1]: 0 ng/mL; half-life [1]: 23.8 ± 3.1 h; AUC [2]: 4.43 ± 0.35 µg·h/mL; Cmax [2]: 62.6 ± 5.7 ng/mL; Tmax [2]: 11.2 ± 0.8 h; concentration at 14 days [2]: 0.6 ± 0.6 ng/mL; half-life [2]: 39 ± 3.4 h; Cmax [3]: 24.3 ± 8.4 ng/mL; Tmax [3]: 11.3 ± 0.7 h; concentration at 14 days [3]: 0.1 ± 0.1 ng/mL; half-life [3]: 28.7 ± 1.5 h; AUC (patients with fat malabsorption (N = 6), serum level of the administered substance): 1.18 ± 0.425 µg·h/mL; blood level of vitamin D3 relative to Cmax (high BMI subjects): ≈ 23 % of Cmax; blood level of vitamin D3 relative to Cmax (low BMI (normal) subjects): 41 % of Cmax and ≈ 41 % of Cmax
